Data: patent publication EP3807270B1, “NOVEL HETEROARYL HETEROCYCLYL COMPOUNDS FOR THE TREATMENT OF AUTOIMMUNE DISEASE” (F. Hoffmann-La Roche AG, priority 2018, dated 2019)

Target: T1, hTLR9 (Homo sapiens, UniProt Q9NR96)
T1 sequence (Q9NR96 26-1032): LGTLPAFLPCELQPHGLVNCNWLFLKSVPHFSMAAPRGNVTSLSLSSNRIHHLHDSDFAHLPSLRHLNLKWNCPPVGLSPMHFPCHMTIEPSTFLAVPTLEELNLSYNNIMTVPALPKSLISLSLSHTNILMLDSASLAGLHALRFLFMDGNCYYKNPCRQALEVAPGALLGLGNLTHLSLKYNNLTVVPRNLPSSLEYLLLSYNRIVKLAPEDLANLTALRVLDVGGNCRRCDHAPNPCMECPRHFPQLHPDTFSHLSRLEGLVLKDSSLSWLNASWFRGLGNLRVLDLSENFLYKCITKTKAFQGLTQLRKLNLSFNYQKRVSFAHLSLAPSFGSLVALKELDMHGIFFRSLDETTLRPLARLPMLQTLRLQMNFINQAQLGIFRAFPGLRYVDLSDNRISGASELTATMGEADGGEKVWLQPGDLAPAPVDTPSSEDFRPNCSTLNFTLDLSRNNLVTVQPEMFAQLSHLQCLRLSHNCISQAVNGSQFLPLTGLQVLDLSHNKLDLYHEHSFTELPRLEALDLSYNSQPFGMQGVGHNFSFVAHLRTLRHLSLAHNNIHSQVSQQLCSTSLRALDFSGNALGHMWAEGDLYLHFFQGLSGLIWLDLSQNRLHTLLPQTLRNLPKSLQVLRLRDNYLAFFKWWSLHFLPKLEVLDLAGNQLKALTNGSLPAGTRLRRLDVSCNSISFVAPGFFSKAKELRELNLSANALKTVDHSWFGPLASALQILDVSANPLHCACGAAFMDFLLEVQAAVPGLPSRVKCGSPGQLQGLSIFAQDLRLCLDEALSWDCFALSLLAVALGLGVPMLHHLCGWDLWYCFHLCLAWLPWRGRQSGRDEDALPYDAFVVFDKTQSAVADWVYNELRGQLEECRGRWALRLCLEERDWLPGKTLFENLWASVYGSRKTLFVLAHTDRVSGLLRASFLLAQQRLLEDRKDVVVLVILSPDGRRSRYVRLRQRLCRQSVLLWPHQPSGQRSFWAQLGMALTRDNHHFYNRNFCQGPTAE
Assay: HEK293-Blue-hTLR-9 cells assay (SEAP reporter, ODN2006 stimulation)
Format: cell-based
Parameters: host or cells: HEK293 (HEK-Blue)
Conditions: HEK293-Blue-hTLR9 cells, ODN2006, 20 hrs; read-out: HEK/hTLR9 IC50
Source text: A stable HEK293-Blue-hTLR-9 cell line was purchased from InvivoGen (Cat.#: hkb-htlr9, San Diego, California, USA). These cells were originally designed for studying the stimulation of human TLR9 by monitoring the activation of NF-κB. A SEAP (secreted embryonic alkaline phosphatase) reporter gene was placed under the control of the IFN-β minimal promoter fused to five NF-κB and AP-1-binding sites. The SEAP was induced by activating NF-κB and AP-1 via stimulating HEK-Blue hTLR9 cells with TLR9 ligands. Therefore, the reporter expression was declined by TLR9 antagonist under the stimulation of a ligand, such as ODN2006 (Cat.#: tlrl-2006-1, Invivogen, San Diego, California, USA), for incubation of 20 hrs. The cell culture supernatant SEAP reporter activity was determined using QUANTI-Blue™ kit (Cat.#: rep-qb 1, Invivogen, San Diego, California, USA) at a wavelength of 640 nm, a detection medium that turns purple or blue in the presence of alkaline phosphatase.
HEK293-Blue-hTLR9 cells were incubated at a density of 250,000-450,000 cells/mL in a volume of 170 µL in a 96-well plate in Dulbecco's Modified Eagle's medium (DMEM) containing 4.5 g/L glucose, 50 U/mL penicillin, […], […], 2 mM L-glutamine, 10% (v/v) heat-inactivated fetal bovine serum with addition of 20 µL test compound in a serial dilution in the presence of final DMSO at 1% and 10 µL of 20uM ODN2006 in above DMEM, perform incubation under 37 °C in a CO2 incubator for 20 hrs. Then 20 µL of the supernatant from each well was incubated with 180 µL Quanti-blue substrate solution at 37 °C for 2 hrs and the absorbance was read at 620-655 nm using a spectrophotometer. The signaling pathway that TLR9 activation leads to downstream NF-κB activation has been widely accepted, and therefore similar reporter assay was modified for evaluating TLR9 antagonist.

| Structure (SMILES) | IC50 [nM] |
| --- | --- |
| COc1ccc(N2CCN(C[C@H]3CN(c4ccc(C#N)c5ncccc45)C[C@@H](C)O3)CC2)cc1 [Example R1, 5-[(2S,6R)-2-[[4-(4-methoxyphenyl)piperazin-1-yl]methyl]-6-methyl-morpholin-4-yl]quinoline-8-carbonitrile, reference compound] | 6620 |
| C[C@@H]1CN(c2ccc(C#N)c3ncccc23)C[C@H](CN2CCN(c3ccc4c(n3)[C@H](C)NC4)CC2)O1 (single isomer, unassigned) [Example 66] | 112 |
| C[C@@H]1CN(c2ccc(C#N)c3ncccc23)C[C@H](CN2CCN(c3ncc4c(n3)CNCC4)CC2)O1 [Example 12, 5-[(2R,6S)-2-methyl-6-[[4-(5,6,7,8-tetrahydropyrido[3,4-d]pyrimidin-2-yl)piperazin-1-yl]methyl]morpholin-4-yl]quinoline-8-carbonitrile] | 143 |
| C[C@@H]1CN(c2ccc(C#N)c3ncccc23)C[C@H](CN2CCN(c3cnc4c(c3)CN[C@H]4C)CC2)O1 (single isomer, unassigned) [Example 67] | 143 |
| C[C@@H]1CN(c2ccc(C#N)c3ncccc23)C[C@H](CN2CCN(c3ncnc4c3CNCC4)CC2)O1 [Example 61, 5-[(2R,6S)-2-methyl-6-[[4-(5,6,7,8-tetrahydropyrido[4,3-d]pyrimidin-4-yl)piperazin-1-yl]methyl]morpholin-4-yl]quinoline-8-carbonitrile] | 229 |
| C[C@@H]1CN(c2ccc(C#N)c3ncccc23)C[C@H](CN2CCN(c3ccc4c(c3)CNC4)[C@@H](CO)C2)O1 [Example 4, 5-[(2S,6R)-2-[[(3R)-3-(hydroxymethyl)-4-isoindolin-5-yl-piperazin-1-yl]methyl]-6-methyl-morpholin-4-yl]quinoline-8-carbonitrile] | 148 |
| C[C@@H]1CN(c2ccc(C#N)c3ncccc23)C[C@H](CN2CCN(c3nc4c(s3)CNCC4)CC2)O1 [Example 31, 5-[(2R,6S)-2-methyl-6-[[4-(4,5,6,7-tetrahydrothiazolo[5,4-c]pyridin-2-yl)piperazin-1-yl]methyl]morpholin-4-yl]quinoline-8-carbonitrile] | 140 |
| C[C@@H]1CN(c2ccc(C#N)n3ncc(F)c23)C[C@H](CN2CCN(c3cnc4c(c3)CNC4)CC2)O1 [Example 26, 4-[(2S,6R)-2-[[4-(6,7-dihydro-5H-pyrrolo[3,4-b]pyridin-3-yl)piperazin-1-yl]methyl]-6-methyl-morpholin-4-yl]-3-fluoro-pyrazolo[1,5-a]pyridine-7-carbonitrile] | 119 |
| C[C@@H]1CN(c2ccc(C#N)c3ncccc23)C[C@H](CN2CCN(c3ccc(Cl)cc3)CC2)O1 [Example R2, 5-[(2S,6R)-2-[[4-(4-chlorophenyl)piperazin-1-yl]methyl]-6-methyl-morpholin-4-yl]quinoline-8-carbonitrile, reference compound] | 7030 |
| C[C@@H]1CN(c2ccc(C#N)c3ncccc23)C[C@H](CNC2CN(c3cnc4c(c3)CNC4)C2)O1 [Example 43, 5-[(2S,6R)-2-[[[1-(6,7-dihydro-5H-pyrrolo[3,4-b]pyridin-3-yl)azetidin-3-yl]amino]methyl]-6-methyl-morpholin-4-yl]quinoline-8-carbonitrile] | 111 |
| C[C@@H]1CN(c2ccc(C#N)c3ncccc23)C[C@H](CN2CCN(c3ccc4c(n3)CCNC4)C[C@@H](O)C2)O1 (single isomer, unassigned) [Example 35B] | 117 |
| C[C@@H]1CN(c2ccc(C#N)c3ncccc23)C[C@H](CN2CCN(c3ccc4c(c3)C(O)CN(C)C4)CC2)O1 (stereo partly drawn) [Example 59, 5-[(2S,6R)-2-[[4-(4-hydroxy-2-methyl-3,4-dihydro-1H-isoquinolin-6-yl)piperazin-1-yl]methyl]-6-methyl-morpholin-4-yl]quinoline-8-carbonitrile] | 133 |
| Cc1nc2c(nc1N1CCN(C[C@H]3CN(c4ccc(C#N)c5ncccc45)C[C@@H](C)O3)CC1)CCNC2 [Example 60, 5-[(2R,6S)-2-methyl-6-[[4-(3-methyl-5,6,7,8-tetrahydropyrido[3,4-b]pyrazin-2-yl)piperazin-1-yl]methyl]morpholin-4-yl]quinoline-8-carbonitrile] | 156 |
| C[C@@H]1Cc2cnc(N3CCN(C[C@H]4CN(c5ccc(C#N)c6nccnc56)C[C@@H](C)O4)CC3)cc2CN1 (single isomer, unassigned) [Example 82] | 192 |
| C[C@@H]1CN(c2ccc(C#N)c3ncccc23)C[C@H](CN2CCN(c3ccc4c(n3)CCNC4)C[C@H](O)C2)O1 (single isomer, unassigned) [Example 35A] | 147 |
| C[C@@H]1CN(c2ccc(C#N)c3ncccc23)C[C@H](CN2CCN(c3nccc4c3CCNC4)CC2)O1 [Example 62, 5-[(2R,6S)-2-methyl-6-[[4-(5,6,7,8-tetrahydro-2,6-naphthyridin-1-yl)piperazin-1-yl]methyl]morpholin-4-yl]quinoline-8-carbonitrile] | 151 |
| C[C@@H]1Cc2cnc(N3CCN(C[C@H]4CN(c5ccc(C#N)c6ncccc56)C[C@@H](C)O4)CC3)cc2CN1 (single isomer, unassigned) [Example 77] | 115 |

Second part, the compound after the results:

| IC50 [nM] | Structure (SMILES) |
| --- | --- |
| 87 | C[C@@H]1CN(c2ccc(C#N)c3nccnc23)C[C@H](CN2CCN(c3cc4c(cn3)[C@H](C)NCC4)CC2)O1 (single isomer, unassigned) [Example 85] |
| 67 | C[C@@H]1CN(c2ccc(C#N)c3ncccc23)C[C@H](CN2CCN(c3ccc4c(n3)CN[C@H]4C)CC2)O1 (single isomer, unassigned) [Example 63] |
| < 32 | C[C@@H]1CN(c2ccc(C#N)c3ncccc23)C[C@H](CN2C[C@H]3CN(c4ccc5c(n4)CCNC5)CC[C@@H]32)O1 (single isomer, unassigned) [Example 54] |
| 66 | C[C@@H]1CN(c2ccc(C#N)c3ncccc23)C[C@H](CN2CCN(c3cc4c(cn3)[C@H](C)NCC4)CC2)O1 (single isomer, unassigned) [Example 72] |
| 83 | C[C@@H]1Cc2cc(N3CCN(C[C@H]4CN(c5ccc(C#N)c6ncccc56)C[C@@H](C)O4)CC3)ncc2CN1 (single isomer, unassigned) [Example 70] |
| 52 | CC1NCc2cc(N3CCN(C[C@H]4CN(c5ccc(C#N)c6ncccc56)C[C@@H](C)O4)CC3)ccc21 (stereo partly drawn) [Example 28, 5-[(2R,6S)-2-methyl-6-[[4-(1-methylisoindolin-5-yl)piperazin-1-yl]methyl]morpholin-4-yl]quinoline-8-carbonitrile] |
| 109 | C[C@@H]1CN(c2ccc(C#N)c3ncccc23)C[C@H](CN2CCN(c3ccc4c(c3)CNC4)C(CO)C2)O1 (stereo partly drawn) [Example 13, 5-[(2S,6R)-2-[[3-(hydroxymethyl)-4-isoindolin-5-yl-piperazin-1-yl]methyl]-6-methyl-morpholin-4-yl]quinoline-8-carbonitrile] |
| 81 | C[C@@H]1CN(c2ccc(C#N)c3ncccc23)C[C@H](CN2CCN(c3ccc4c(n3)[C@@H](C)NC4)CC2)O1 (single isomer, unassigned) [Example 65] |
| 97 | C[C@@H]1CN(c2ccc(C#N)c3ncccc23)C[C@H](CN2CCN(c3ccc4c(c3)CNC4)CC2CO)O1 (stereo partly drawn) [Example 15, 5-[(2S,6R)-2-[[2-(hydroxymethyl)-4-isoindolin-5-yl-piperazin-1-yl]methyl]-6-methyl-morpholin-4-yl]quinoline-8-carbonitrile] |
